# Laboratory results published in patent US20030229066A1, “Novel heterocyclic urea derivatives and their use as dopamine D3 receptor ligands” (priority 2001, published 2003).
# Target: T1, cloned human dopamine D3 receptors (Homo sapiens, UniProt P35462)
# T1 construct: expressed in transfected cells
# Test: [N-Methyl-3H]Spiroperidol binding to cloned human dopamine D3 receptors
# Source text: [N-Methyl-^3H]Spiroperidol Binding to Cloned Human Dopamine D3 Receptors
# This assay measures the in vitro activity of compounds on cloned human dopamine (D3) receptors and predicts the direct dopamine-blocking properties of putative neuropsychiatric agents at human dopamine D3 receptors.
# The D3 gene was isolated from a human striatal cDNA library (Stratagene). The gene was sequenced and sub-cloned into the expression vector RC/RSV (Invitrogen). CHO (Chinese Hamster Ovary) cells were stably transfected with 10 μg of the D3/RSV plasmid using the DOTAP method from Boehringer Mannheim and 72 clones that were G418 resistant were isolated. Using mRNA and binding displacement data a single high expressing clone was identified. This clone was then grown in large batches for the purpose of developing a 96 well format assay.
# The cells are harvested into 250 ml centrifuge tubes with 100 volumes of cold phosphate buffered saline (PBS) and spun down (1200×G for 10 min at 4° C.). The medium is removed and 100 ml PBS are added to each centrifuge tube, cells are resuspened and spun down again. The PBS is removed and the final pellet is homogenized in an appropriate volume of 10% DMSO with a polytron on ice at a medium setting.
# For Kj determinations: [^3H]NMSP is made up to a concentration of 2.7 nM in buffer 2b, such that when 150 μl is added to each tube a final concentration of 0.4 nM is attained in the 1 ml assay. Samples of total CPM added are taken for each experiment to calculate the total ligand concentration.
# 5. S(-)-Eticlopride is obtained from Research Biochemicals International (RBI catalog number E-101). A refrigerated stock (good for up to a month) solution of S(-)-eticlopride is made at a concentration of 30 μM in buffer 2b. One hundred microliters are added to 3 wells for the determination of nonspecific binding (this yields a final concentration of 3 μM in the 1 ml assay).
# For most assays, a 100 μM stock solution of the test compound is made up in a suitable solvent (usually <0.1% acetic acid) and serially diluted with buffer 2b, such that when 100 μl of drug is combined with the total 1 ml assay, final concentrations ranging from 10^−5-10^−8 M are attained. Characteristically eight concentrations are studied for each assay; however, higher or lower concentrations may be used, depending on the potency of the drug.
# The 96-Well Packard Unifilters GF/B are incubated for >1 h at 25° C. in 0.1% polyethylamine (from 3,b). The cold tissue is added last and mixed on a orbital shaker for a few seconds and is then incubated at 37° C. for 30 min in a shaking water bath. The assay is stopped by rapid filtration through Packard Unifilter plates. The filter membranes are then washed with 15 ml of ice-cold 0.05 M Tris buffer. The filters are then dried (˜15 min under a heat lamp or incubated for 15 min in a 60° C. oven) and a bottom seal is applied. Then 40 μl of Packard Microscint 20 scintillation cocktail is added and a permanent topseal (Type P) is applied and heat sealed. The plates are then shaken on an orbital shaker for 1 h and placed in the Packard Topcount and counted for at least 5 minutes for each point.
# Specific binding is defined as the difference between total binding and the binding in the presence of 3 μM S-(-)-eticlopride. Total binding is approximately 10% of the total added ligand. Cheng-Prusoff determination (Kj's) are performed using Prism software using a one-site competition curve analysis where the top and the bottom of the non-linear regression are held constant at 0% and 100% percent inhibition. The percent inhibition at each drug concentration is the mean of duplicate determinations.
# T1 sequence (P35462 whole entry): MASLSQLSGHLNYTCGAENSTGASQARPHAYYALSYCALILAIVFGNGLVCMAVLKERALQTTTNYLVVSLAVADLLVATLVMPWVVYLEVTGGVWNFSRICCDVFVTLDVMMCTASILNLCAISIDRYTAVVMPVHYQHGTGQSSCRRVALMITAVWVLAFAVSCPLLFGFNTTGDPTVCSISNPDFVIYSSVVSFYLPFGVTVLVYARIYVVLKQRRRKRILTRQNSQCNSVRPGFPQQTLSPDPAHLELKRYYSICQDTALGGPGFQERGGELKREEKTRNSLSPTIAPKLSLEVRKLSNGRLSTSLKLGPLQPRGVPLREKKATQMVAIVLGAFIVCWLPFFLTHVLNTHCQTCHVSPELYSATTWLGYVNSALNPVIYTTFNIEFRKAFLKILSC
row,SMILES,Ki [nM]
1,O=C(NCCCCN1CCCN(c2csc3cc(F)ccc23)CC1)Nc1cccc(F)c1 [compound 829217],3.51
2,O=C(NCCCCN1CCCN(c2csc3cc(F)ccc23)CC1)Nc1cccc(C(F)(F)F)c1 [compound 829218],0.165
3,COc1ccc(NC(=O)NCCCCN2CCCN(c3csc4cc(F)ccc34)CC2)cc1 [compound 829219],0.0926
4,O=C(NCCCCN1CCCN(c2csc3cc(F)ccc23)CC1)Nc1ccc(Br)cc1 [compound 829220],18.1
5,COc1cccc(NC(=O)NCCCCN2CCCN(c3csc4cc(F)ccc34)CC2)c1 [compound 829221],0.0961
6,Cc1cccc(NC(=O)NCCCCN2CCN(c3noc4ccsc34)CC2)c1 [compound 829369],44.2
7,O=C(NCCCCN1CCN(c2noc3ccsc23)CC1)Nc1cccc(Cl)c1 [compound 829370],4.91
8,O=C(NCCCCN1CCN(c2noc3ccsc23)CC1)Nc1ccc(F)cc1F [compound 829371],55.2
9,O=C(NCCCCN1CCN(c2noc3ccsc23)CC1)Nc1ccc(C(F)(F)F)cc1 [compound 829372],31.9
10,O=C(NCCCCN1CCN(c2noc3ccsc23)CC1)Nc1cccc(Br)c1 [compound 829373],14.9
11,O=C(NCCCCN1CCN(c2noc3ccsc23)CC1)Nc1ccc(OC(F)(F)F)cc1 [compound 829374],103
12,O=C(NCCCCN1CCN(c2noc3ccsc23)CC1)Nc1cc(C(F)(F)F)cc(C(F)(F)F)c1 [compound 829375],176
13,O=C(NCCCCN1CCN(c2noc3ccsc23)CC1)Nc1cc(F)ccc1F [compound 829377],87.9
14,O=C(NCCCCN1CCN(c2noc3ccsc23)CC1)Nc1cc(Cl)cc(Cl)c1 [compound 829378],184
15,CSc1ccc(NC(=O)NCCCCN2CCN(c3noc4ccsc34)CC2)cc1 [compound 829379],54.9
16,Cc1ccc(NC(=O)NCCCCN2CCN(c3noc4ccsc34)CC2)cc1 [compound 829380],26.9
17,CC(=O)c1cccc(NC(=O)NCCCCN2CCN(c3noc4ccsc34)CC2)c1 [compound 829381],46.5
18,CCOc1ccc(NC(=O)NCCCCN2CCN(c3noc4ccsc34)CC2)cc1 [compound 829382],42.7
19,N#Cc1cccc(NC(=O)NCCCCN2CCN(c3noc4ccsc34)CC2)c1 [compound 829383],102
20,COc1cc(NC(=O)NCCCCN2CCN(c3noc4ccsc34)CC2)cc(OC)c1OC [compound 829384],190
21,O=C(NCCCCN1CCN(c2noc3ccsc23)CC1)Nc1cc(C(F)(F)F)ccc1F [compound 829385],142

row,SMILES,Ki [nM]
1,O=C(NCCCCN1CCN(c2noc3ccsc23)CC1)Nc1ccc(F)c(C(F)(F)F)c1 [compound 829387],114
2,O=C(NCCCCN1CCN(c2noc3ccsc23)CC1)Nc1ccc(F)cc1 [compound 829388],44
3,O=C(NCCCCN1CCN(c2noc3ccsc23)CC1)Nc1ccc(Cl)c(Cl)c1 [compound 829389],50.5
4,O=C(NCCCCN1CCN(c2noc3ccsc23)CC1)Nc1ccc(Cl)cc1 [compound 829390],37.5
5,O=C(NCCCCN1CCN(c2noc3ccsc23)CC1)Nc1ccc(Cl)cc1C(F)(F)F [compound 829392],487
6,O=C(NCCCCN1CCN(c2noc3ccsc23)CC1)Nc1ccccc1F [compound 829393],190
7,O=C(NCCCCN1CCN(c2noc3ccsc23)CC1)Nc1cccc(F)c1 [compound 829394],77.1
8,O=C(NCCCCN1CCN(c2noc3ccsc23)CC1)Nc1cccc(C(F)(F)F)c1 [compound 829395],148
9,COc1ccc(NC(=O)NCCCCN2CCN(c3noc4ccsc34)CC2)cc1 [compound 829396],121
10,O=C(NCCCCN1CCN(c2noc3ccsc23)CC1)Nc1ccc(Br)cc1 [compound 829397],86.6
11,COc1cccc(NC(=O)NCCCCN2CCN(c3noc4ccsc34)CC2)c1 [compound 829398],44.1
12,CC(C)c1ccc(NC(=O)NCCCCN2CCN(c3noc4ccsc34)CC2)cc1 [compound 829407],452
13,O=C(NCCCCN1CCCN(c2noc3ccsc23)CC1)Nc1cccc(Cl)c1 [compound 829409],379
14,O=C(NCCCCN1CCCN(c2noc3ccsc23)CC1)Nc1ccc(C(F)(F)F)cc1 [compound 829411],670
15,O=C(NCCCCN1CCCN(c2noc3ccsc23)CC1)Nc1cc(C(F)(F)F)cc(C(F)(F)F)c1 [compound 829414],546
16,O=C(NCCCCN1CCCN(c2noc3ccsc23)CC1)Nc1cc(C(F)(F)F)ccc1Cl [compound 829415],345
17,O=C(NCCCCN1CCCN(c2noc3ccsc23)CC1)Nc1ccc(Cl)c(C(F)(F)F)c1 [compound 829416],327
18,O=C(NCCCCN1CCCN(c2noc3ccsc23)CC1)Nc1cc(F)ccc1F [compound 829417],338
19,O=C(NCCCCN1CCCN(c2noc3ccsc23)CC1)Nc1cc(Cl)cc(Cl)c1 [compound 829418],52.9
20,Cc1ccc(NC(=O)NCCCCN2CCCN(c3noc4ccsc34)CC2)cc1 [compound 829419],138
21,CSc1ccc(NC(=O)NCCCCN2CCCN(c3noc4ccsc34)CC2)cc1 [compound 829420],233

row,SMILES,Ki [nM]
1,CC(=O)c1cccc(NC(=O)NCCCCN2CCCN(c3noc4ccsc34)CC2)c1 [compound 829421],173
2,CC(C)c1ccc(NC(=O)NCCCCN2CCCN(c3noc4ccsc34)CC2)cc1 [compound 829422],466
3,O=C(NCCCCN1CCCN(c2noc3ccsc23)CC1)Nc1cc(C(F)(F)F)ccc1F [compound 829425],539
4,O=C(NCCCCN1CCCN(c2noc3ccsc23)CC1)Nc1ccc(F)c(C(F)(F)F)c1 [compound 829427],459
5,O=C(NCCCCN1CCCN(c2noc3ccsc23)CC1)Nc1ccc(F)cc1 [compound 829428],747
6,O=C(NCCCCN1CCCN(c2noc3ccsc23)CC1)Nc1ccc(Cl)c(Cl)c1 [compound 829429],111
7,O=C(NCCCCN1CCCN(c2noc3ccsc23)CC1)Nc1cccc(F)c1 [compound 829431],153
8,O=C(NCCCCN1CCCN(c2noc3ccsc23)CC1)Nc1cccc(C(F)(F)F)c1 [compound 829432],226
9,COc1ccc(NC(=O)NCCCCN2CCCN(c3noc4ccsc34)CC2)cc1 [compound 829433],216
10,O=C(NCCCCN1CCCN(c2noc3ccsc23)CC1)Nc1ccc(Br)cc1 [compound 829434],197
11,CCOc1ccc(NC(=O)NCCCCN2CCC(c3noc4c(C)csc34)CC2)cc1 [compound 829873],27.7
12,CCOc1ccc(NC(=O)N(CCCCN2CCC(c3noc4c(C)csc34)CC2)C(=O)Nc2ccc(OCC)cc2)cc1 [compound 829874],360
13,Cc1csc2c(C3CCN(CCCCN(C(=O)Nc4cccc(F)c4)C(=O)Nc4cccc(F)c4)CC3)noc12 [compound 829875],94.7
14,COc1cccc(NC(=O)N(CCCCN2CCC(c3noc4c(C)csc34)CC2)C(=O)Nc2cccc(OC)c2)c1 [compound 829876],77.1
15,Cc1cccc(NC(=O)NCCCCN2CCC(c3noc4c(C)csc34)CC2)c1 [compound 829878],8.78
16,Cc1csc2c(C3CCN(CCCCNC(=O)Nc4ccccc4F)CC3)noc12 [compound 829879],354
17,Cc1csc2c(C3CCN(CCCCNC(=O)Nc4cccc(C(F)(F)F)c4Cl)CC3)noc12 [compound 829882],143
18,Cc1ccc(NC(=O)NCCCCN2CCC(c3noc4cc(C)sc34)CC2)cc1 [compound 830517],9.04
19,COc1ccc(NC(=O)NCCCCN2CCC(c3noc4cc(C)sc34)CC2)cc1 [compound 830518],9.16
20,O=C(NC[C@@H]1C[C@H]1CN1CCN(c2csc3cc(C(F)(F)F)ccc23)CC1)Nc1cccc(F)c1 [compound 832786],61.6
21,COc1ccc(NC(=O)NC[C@@H]2C[C@H]2CN2CCN(c3csc4cc(C(F)(F)F)ccc34)CC2)cc1 [compound 832810],33.5
